Experimental findings from ChEMBL document CHEMBL1201862, “PubChem BioAssay data set” (2004) are described below.

Some test systems named below: CAKI-1; SK-MEL-5; SF-539; UACC-62; SK-OV-3; A549; CCRF-CEM; SNB-75; NCI-H226; MOLT-4; DU-145; OVCAR-5; 786-0; HT-29; KM12; U-251; T47D; SNB-19; UO-31; Hs-578T.
What all share (assay): growth of human tumour cells (NCI), 48 h

Where a name gives a salt, the structure may show the parent alone.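 Protocol summary: plate cells (96-well), add compound at 5 concentrations, incubate 48 h, interpolate endpoints linearly. GI50 is the concentration that inhibits growth by half.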 Calls of active or inactive are those of the source. Cut-off read from the data, not from the text of the source: active = GI50 up to about 1.1 µM and inactive = higher. Some results are limits rather than exact numbers.

Regarding `CC1(C)CCC2=C(O1)c1ccccc1C(=O)C2=O` [LAPACHONE], the GI50 in the assay on CAKI-1 was 1.03 µM (active); with SK-MEL-5, 0.272 µM (active); with SF-539, 0.463 µM (active); in the assay on UACC-62, 0.475 µM (active); with SK-OV-3, 1.85 µM (inactive); in the assay on A549 it was 0.753 µM (active). Also, the GI50 in the assay with CCRF-CEM was 0.908 µM (active); in the assay on SNB-75, 0.358 µM (active); with NCI-H226, 1.35 µM (inactive); in the assay on MOLT-4, 0.708 µM (active); in the assay on DU-145, 0.64 µM (active); in the assay with OVCAR-5, 0.571 µM (active). In addition, the GI50 in the assay with 786-0 was 1.2 µM (inactive); in the assay with HT-29, 2.5 µM (inactive); in the assay with KM12, 1.36 µM (inactive); in the assay with U-251, 0.337 µM (active); in the assay with T47D, 0.411 µM (active).

As to `CC1(C)CC(=O)C(=CNc2nc(-c3ccccc3)cs2)C(=O)C1`, the GI50 in the assay on SNB-19 is 71.4 µM (inactive); in the assay on SK-MEL-5, 38.1 µM (inactive); with SF-539 it was 26.4 µM (inactive); in the assay with SK-OV-3, > 100 µM (inactive); in the assay on UO-31, 20.7 µM (inactive); in the assay with A549, 49 µM (inactive). For the same compound, the GI50 with SNB-75 is 33.7 µM (inactive); with NCI-H226 it was 29 µM (inactive); in the assay on MOLT-4, 32.4 µM (inactive); in the assay with DU-145 it was 57 µM (inactive); in the assay on OVCAR-5 it was > 100 µM (inactive); in the assay with 786-0, > 100 µM (inactive). For the same compound, the GI50 is 33.6 µM (inactive) with HT-29, 32.1 µM (inactive) with KM12, 29.3 µM (inactive) with U-251 and 32.7 µM (inactive) with T47D.

As for `CCOc1ccc(N/C(=C(/C(Cl)=C(/Cl)Nc2ccccc2)[N+](=O)[O-])n2nnc3ccccc32)cc1`, the GI50 with CAKI-1 is 23.5 µM (inactive); in the assay on SNB-19, 30.1 µM (inactive); in the assay on SK-MEL-5 it was 17.7 µM (inactive); in the assay with UACC-62, 17.8 µM (inactive); with SK-OV-3, 40 µM (inactive); with UO-31, 17.1 µM (inactive). For the same compound, the GI50 in the assay with A549 is 29.1 µM (inactive); in the assay on SNB-75, 57.1 µM (inactive); in the assay on NCI-H226, 40.1 µM (inactive); in the assay with MOLT-4, 14.8 µM (inactive); with DU-145 it was 45.9 µM (inactive); with OVCAR-5, 35.5 µM (inactive). For the same compound, the GI50 is 22.2 µM (inactive) with 786-0, 32.7 µM (inactive) in the assay with KM12, 18.2 µM (inactive) in the assay on U-251 and 40.5 µM (inactive) with T47D.

Consider `CC(CN1c2ccccc2Sc2ccccc21)N(C)C` (configuration not stated) [PROMETHAZINE HYDROCHLORIDE], for which the GI50 is 18.5 µM (inactive) in the assay on CAKI-1; 17.4 µM (inactive) in the assay with SNB-19; 21.1 µM (inactive) in the assay on SK-MEL-5; 19.1 µM (inactive) in the assay with SF-539; 19 µM (inactive) in the assay on UACC-62; 18.3 µM (inactive) with SK-OV-3. For the same compound, the GI50 in the assay with UO-31 was 17.9 µM (inactive); in the assay on A549, 20 µM (inactive); with CCRF-CEM, 20.3 µM (inactive); in the assay with SNB-75, 3.78 µM (inactive); in the assay with NCI-H226 it was 19.1 µM (inactive); in the assay on MOLT-4, 19.8 µM (inactive). The GI50 was 19.4 µM (inactive) with DU-145; 18.2 µM (inactive) in the assay on OVCAR-5; 14.8 µM (inactive) in the assay on 786-0; 16.4 µM (inactive) in the assay on HT-29; 20.8 µM (inactive) in the assay on KM12; 14.2 µM (inactive) with U-251. Also, the GI50 with T47D is 21.5 µM (inactive).

For the compound `O=C1O/C(=C/c2ccccc2)C(c2ccccc2)=C1O`, the GI50 was 47.3 µM (inactive) in the assay with CAKI-1; 47.5 µM (inactive) with SNB-19; 34.4 µM (inactive) with SK-MEL-5; 37.9 µM (inactive) in the assay with SF-539; 18.5 µM (inactive) in the assay on UACC-62; 61.9 µM (inactive) with SK-OV-3. The GI50 in the assay with UO-31 is 27 µM (inactive); in the assay on A549, 33.3 µM (inactive); with CCRF-CEM, 29.7 µM (inactive); with SNB-75, 67.3 µM (inactive); with NCI-H226, > 100 µM (inactive); in the assay on MOLT-4, 53.3 µM (inactive). In addition, the GI50 in the assay with DU-145 is 26 µM (inactive); with OVCAR-5, > 100 µM (inactive); in the assay with 786-0, 46.7 µM (inactive); in the assay with HT-29, > 100 µM (inactive); in the assay on KM12 it was 59.8 µM (inactive); with U-251, 31.3 µM (inactive). Moreover, the GI50 with T47D was 27.2 µM (inactive).

As for `C/C(=N\Nc1nc2ccccc2s1)c1cc2ccccc2cn1`, the GI50 in the assay on CAKI-1 was 3.03 µM (inactive); with SNB-19, 13.6 µM (inactive); with SK-MEL-5, 3.18 µM (inactive); in the assay with SF-539 it was 3.83 µM (inactive); in the assay on UACC-62 it was 3.51 µM (inactive); with SK-OV-3, 3.15 µM (inactive). The GI50 is 1.48 µM (inactive) in the assay with UO-31; 3.66 µM (inactive) in the assay with A549; 2.81 µM (inactive) with CCRF-CEM; 3.24 µM (inactive) in the assay with SNB-75; 1.73 µM (inactive) in the assay with NCI-H226; 0.41 µM (active) with MOLT-4. Also, the GI50 was 3.85 µM (inactive) in the assay on DU-145; 4.38 µM (inactive) in the assay on OVCAR-5; 2.52 µM (inactive) with 786-0; 3.31 µM (inactive) in the assay with HT-29; 4.89 µM (inactive) in the assay on KM12; 4.68 µM (inactive) in the assay on U-251. The GI50 in the assay with T47D was 0.378 µM (active).

Take `COCCOCN(C(=O)C1=CCC2(CC1)OCCO2)c1ccccc1I`: the GI50 with CAKI-1, in the assay on SNB-19, with SK-MEL-5, with UACC-62, in the assay with SK-OV-3 and in the assay on UO-31 was > 50 µM (inactive) each time. The GI50 in the assay on A549, in the assay on CCRF-CEM, in the assay on SNB-75, in the assay on NCI-H226, in the assay on MOLT-4 and with DU-145 was > 50 µM (inactive) in each case. The GI50 in the assay on OVCAR-5, in the assay on 786-0, with HT-29, with KM12, with U-251 and in the assay with T47D was > 50 µM (inactive) throughout.

Take `COc1ccc(CCc2ccc3c(c2)OCO3)cc1`: the GI50 in the assay with CAKI-1 was 75.5 µM (inactive); in the assay on SNB-19 it was > 100 µM (inactive); in the assay with SK-MEL-5, 34.9 µM (inactive); in the assay with SF-539, 92 µM (inactive); in the assay on UACC-62, > 100 µM (inactive); in the assay with SK-OV-3, > 100 µM (inactive). The GI50 in the assay with A549 is 68.9 µM (inactive); in the assay on CCRF-CEM it was 35.9 µM (inactive); with SNB-75 it was > 100 µM (inactive); in the assay on NCI-H226, 62.5 µM (inactive); in the assay with MOLT-4 it was 34.7 µM (inactive); in the assay on DU-145 it was 43 µM (inactive). For the same compound, the GI50 was > 100 µM (inactive) in the assay with OVCAR-5; > 100 µM (inactive) with 786-0; 28.7 µM (inactive) with HT-29; 29.2 µM (inactive) in the assay with KM12; 33.7 µM (inactive) in the assay with U-251; 86.3 µM (inactive) with Hs-578T.
